From patent publication US20220089602A1, “COMPOUNDS THAT INDUCE FERROPTIC CELL DEATH” (The Board of Trustees of the University of Illinois, priority 2019, published 2022)

Key:
[1] = system: S. aureus; assay: Antibacterial activity (MIC); assay type: cell-based; conditions: Staphylococcus aureus; gram positive (S. aureus)
[2] = system: 4T1 triple negative breast cancer cells; assay: 4T1 syngeneic subcutaneous tumor model, immunocompetent mice; assay type: in vivo; conditions: 50 mg/kg i.p., twice a week, five doses, Balb/c
Protocol: (§1) The protocol was approved by the IACUC at the University of Illinois at Urbana-Champaign (Protocol Number: 17192). 9-week old female Balb/C or SCID mice (Charles River) were lightly sedated with i.p. xylazine/ketamine/saline solution. Following sedation, 4T1 murine breast cancer cells suspended in chilled HBSS (100 μL of 4×10^6 cells/mL) were injected subcutaneously into the right flank of shaved and sedated mice using an insulin syringe. On day 8 after inoculation, mice were randomized with 7 mice per group for vehicle or ferroptocide treatment. Vehicle (PEG400) or ferroptocide (50 mg/kg) was administered intraperitoneally as a PEG400 solution twice a week for 5 times. Tumor measurements were performed every 3 or 4 days using a caliper and tumor volume was calculated using the equation (0.5×l×w^2). On day 23 after the 4T1 cells inoculation, mice were sacrificed. Tumors were then surgically removed, and their mass was measured.

[3] = system: 4T1 triple negative breast cancer cells; assay: 4T1 subcutaneous tumor model, immunocompromised mice; assay type: in vivo; conditions: 50 mg/kg i.p., twice a week, five doses, SCID; listed as ferroptocide
Protocol: as §1

[4] = target: T1, thioredoxin (Homo sapiens, UniProt P10599); assay: Thioredoxin activity assay in cell lysate; assay type: cell-based; conditions: 30 min treatment, HCT 116 cells; versus PMX464 and PX-12 (50 μM)
T1 construct: endogenous in cells
T1 sequence (P10599 whole entry): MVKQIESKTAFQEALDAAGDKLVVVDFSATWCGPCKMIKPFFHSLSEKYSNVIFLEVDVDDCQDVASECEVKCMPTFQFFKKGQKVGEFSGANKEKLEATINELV
Protocol: (§2) HCT 116 cells (1×10^6 cells/flask) were treated with DMSO, 10 μM ferroptocide, 50 μM PMX464, or 50 μM PX-12 for 30 min. Cells were harvested by centrifugation, resuspended in the assay buffer and lysed via sonication. For each condition, 20 μg of cell lysate was used to measure the activity thioredoxin activity following manufacturer' protocol (Cayman Chemical, Fluorescent Thioredoxin Activity Assay kit #20039) in a 96-well black-walled plate. For in vitro studies, human thioredoxin (10 μL of 0.2 μM solution) was used in addition to thioredoxin reductase (10 μL of 1.0 μM solution), 1 μl of DMSO, ferroptocide, […], or PX-12 at indicated concentrations, 5 μL of NADPH (diluted according to manufacturer's instructions), and assay buffer to a final volume of 75 μL. The plate was incubated at 37° C. for 30 min followed by immediate addition of 20 μL fluorescent substrate per each well (diluted as instructed in the assay kit). Fluorescence was monitored over 1 hr at 520 nm after excitation at 480 nm in a SpectraMax M3 (Molecular Devices) instrument at 37° C.

[5] = target: T2, purified human thioredoxin (Homo sapiens, UniProt P10599); assay: Thioredoxin activity assay, biochemical (in vitro); conditions: 30 min, versus PMX464 and PX-12
T2 construct: purchased Cayman Chemical Fluorescent Thioredoxin Activity Assay kit #20039
T2 sequence (P10599 whole entry): as above
Protocol: as §2

[6] = system: ES-2 cells; assay: Cellular ROS production (carboxy-H2DCFDA); assay type: cell-based; conditions: 1 hr
Protocol: (§3) ES-2 and HCT 116 cells (3×10^5 cells/mL) were plated in 6-well plates. Cells were treated with DMSO, ferroptocide at the indicated concentrations, Etoposide (100 μM), TBHP (100 μM) for 1 hr and 1.5 hr respectively. Cells were washed with HBSS and incubated in the dark for 25 min with 25 μM carboxy-H2DCFDA probe. Cells were then washed 3× with HBSS and harvested at 1000×g, 3 min. After resuspension in 500 μl HBSS buffer, samples were subjected to flow cytometry to record ten thousand events per sample in FL1 channel in BD LSR II Flow Cytometer (BD Bioscience). FCS express V6 De Novo software was used to generate the histograms.

[7] = system: HCT 116 cells; assay: Cellular ROS production (carboxy-H2DCFDA); assay type: cell-based; conditions: 1.5 hr
Protocol: as §3

[8] = system: ES-2 cells; assay: Cellular lipid ROS production (C11-BODIPY); assay type: cell-based; conditions: 10 μM
Protocol: (§4) ES-2, HCT 116, and 4T1 cells (1×10^5 cells/mL) were plated in 12-well plates. Cells were pre-treated for 2 hr with 100 μM deferoxamine followed by treatment with DMSO, 10 μM ferroptocide, 10 μM RSL3, or 100 μM TBHP for 1 hr, 1.5 hr and 2 hr respectively. Cells were washed with HBSS and incubated in the dark for 20 min with 5 μM C11-BODIPY probe. Cells were then washed 2× with HBSS and harvested at 1000×g, 3 min. After resuspension in 500 μl HBSS buffer, samples were analyzed with flow cytometry to record ten thousand events per sample in FL1 channel in BD LSR II Flow Cytometer (BD Bioscience). FCS express V6 De Novo software was used to generate histograms.

[9] = system: HCT 116 cells; assay: Cellular lipid ROS production (C11-BODIPY); assay type: cell-based; conditions: 10 μM
Protocol: as §4

C[C@@H]1CC[C@@]23C[C@H](O)C(=O)[C@@]2(O)[C@]1(C)[C@H](OC(=O)CCl)C[C@@H](C1=CCn2c(=O)n(-c4ccccc4)c(=O)n2C1)[C@@H]3C [Compound P18, ferroptocide]
MIC [1]: > 64 µg/mL
effect on subcutaneous 4T1 tumor growth (in words) [2]: inhibits subcutaneous 4T1 tumor growth
tumor growth retardation (tumor volume) ([2]; compared to vehicle): 40%
effect on subcutaneous 4T1 tumor growth (in words) [3]: no effect
thioredoxin activity in cell lysate [4]: significantly reduced the activity of thioredoxin
inhibition of purified thioredoxin, dose-response [5]: more potent thioredoxin inhibitor than PMX464 and PX-12
ROS production [6]: Dose-dependent ROS production
ROS production [7]: Dose-dependent ROS production
lipid ROS [8]: induces lipid ROS
lipid ROS [9]: induces lipid ROS
